Measured values: US10183950B2, “Thienopyrimidine inhibitors of atypical protein kinase C” (Cancer Research Technology Limited, priority 2011, dated 2019)

Biological target: T1, kinase-domain human PKCι (Homo sapiens, UniProt P41743)
T1 construct: Recombinant, kinase-domain human PKCι is expressed and purified in-house; made in house
T1 sequence (P41743 254-522 limits assumed): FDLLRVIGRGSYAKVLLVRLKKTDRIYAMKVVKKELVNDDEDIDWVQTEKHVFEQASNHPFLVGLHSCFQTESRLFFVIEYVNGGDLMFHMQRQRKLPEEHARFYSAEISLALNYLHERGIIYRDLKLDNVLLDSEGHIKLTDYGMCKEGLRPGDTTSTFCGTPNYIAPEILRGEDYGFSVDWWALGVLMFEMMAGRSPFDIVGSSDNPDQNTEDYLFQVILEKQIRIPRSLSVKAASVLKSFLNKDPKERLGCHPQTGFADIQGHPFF
Experiment: PKCι IC50 IMAP fluorescence polarisation assay, kinase-domain enzyme
Assay type: biochemical
Settings: kinase domain PKCi at 2 μM ATP; read-out: IC50 in IMAP assay against kinase domain PKCi (Activity)

SMILES	IC50 [µM]
N[C@@H](COc1nc(-c2ccncc2)nc2sc3c(c12)CCCC3)Cc1ccccc1 [compound 142, (R)-2-Phenyl-1-(2-pyridin-4-yl-5,6,7,8-tetrahydro-benzo[4,5]thieno[2,3-d]pyrimidin-4-yloxymethyl)-ethylamine]	10 to 40
N[C@@H](COc1nc(-c2ccncc2)nc2sc3c(c12)CCCC3)c1ccccc1 [compound 147, (R)-1-Phenyl-2-(2-pyridin-4-yl-5,6,7,8-tetrahydro-benzo[4,5]thieno[2,3-d]pyrimidin-4-yloxy)-ethylamine]	10 to 40
CC(C)[C@@H](N)COc1nc(-c2ccncc2)nc2sc3c(c12)CCCC3 [compound 148, (R)-2-Methyl-1-(2-pyridin-4-yl-5,6,7,8-tetrahydro-benzo[4,5]thieno[2,3-d]pyrimidin-4-yloxymethyl)-propylamine]	10 to 40
N[C@H](COc1nc(-c2ccncc2)nc2sc3c(c12)CCCC3)Cc1c[nH]c2ccccc12 [compound 158, (S)-2-(1H-Indol-3-yl)-1-(2-pyridin-4-yl-5,6,7,8-tetrahydro-benzo[4,5]thieno[2,3-d]pyrimidin-4-yloxymethyl)-ethylamine]	10 to 40
COc1ccc(C[C@H](N)COc2nc(-c3ccncc3)nc3sc4c(c23)CCCC4)cc1 [compound 159, (S)-1-(4-methoxy-benzyl)-2-(2-pyridin-4-yl-5,6,7,8-tetrahydro-benzo[4,5]thieno [2,3-d]pyrimidin-4-yloxy)-ethylamine]	1 to 10
N[C@H](COc1nc(-c2ccncc2)nc2sc3c(c12)CCCC3)Cc1ccc2ccccc2c1 [compound 160, (S)-1-Naphthalen-2-ylmethyl-2-(2-pyridin-4-yl-5,6,7,8-tetrahydro-benzo[4,5]thieno[2,3-d]pyrimidin-4-yloxy)-ethylamine]	10 to 40
N[C@H](COc1nc(-c2ccncc2)nc2sc3c(c12)CCCC3)Cc1cccc2ccccc12 [compound 161, (S)-1-Naphthalen-1-ylmethyl-2-(2-pyridin-4-yl-5,6,7,8-tetrahydro-benzo[4,5]thieno[2,3-d]pyrimidin-4-yloxy)-ethylamine]	1 to 10
N[C@H](COc1nc(-c2ccncc2)nc2sc3c(c12)CCCC3)Cc1ccc(F)cc1 [compound 162, (S)-1-(4-Fluoro-benzyl)-2-(2-pyridin-4-yl-5,6,7,8-tetrahydro-benzo[4,5]thieno[2,3-d]pyrimidin-4-yloxy)-ethylamine]	10 to 40
N[C@H](COc1nc(-c2ccncc2)nc2sc3c(c12)CCCC3)Cc1cccc(F)c1 [compound 163, (S)-1-(3-Fluoro-benzyl)-2-(2-pyridin-4-yl-5,6,7,8-tetrahydro-benzo[4,5]thieno[2,3-d]pyrimidin-4-yloxy)-ethylamine]	1 to 10
N[C@H](COc1nc(-c2ccncc2)nc2sc3c(c12)CCCC3)Cc1ccccc1F [compound 164, (S)-1-(2-Fluoro-benzyl)-2-(2-pyridin-4-yl-5,6,7,8-tetrahydro-benzo[4,5]thieno[2,3-d]pyrimidin-4-yloxy)-ethylamine]	1 to 10
Cc1cccc(C[C@H](N)COc2nc(-c3ccncc3)nc3sc4c(c23)CCCC4)c1 [compound 165, (S)-1-(3-Methyl-benzyl)-2-(2-pyridin-4-yl-5,6,7,8-tetrahydro-benzo[4,5]thieno[2,3-d]pyrimidin-4-yloxy)-ethylamine]	1 to 10
Cc1ccc(C[C@H](N)COc2nc(-c3ccncc3)nc3sc4c(c23)CCCC4)cc1 [compound 166, (S)-1-(4-Methyl-benzyl)-2-(2-pyridin-4-yl-5,6,7,8-tetrahydro-benzo[4,5]thieno[2,3-d]pyrimidin-4-yloxy)-ethylamine]	1 to 10
N[C@H](CCc1ccccc1)COc1nc(-c2ccncc2)nc2sc3c(c12)CCCC3 [compound 167, (R)-3-Phenyl-1-(2-pyridin-4-yl-5,6,7,8-tetrahydro-benzo[4,5]thieno[2,3-d]pyrimidin-4-yloxymethyl)-propylamine]	10 to 40
N[C@H](COc1nc(-c2ccncc2)nc2sc3c(c12)CCCC3)Cc1cccs1 [compound 168, (S)-2-(2-Pyridin-4-yl-5,6,7,8-tetrahydro-benzo[4,5]thieno[2,3-d]pyrimidin-4-yloxy)-1-thiophen-2-ylmethyl-ethylamine]	1 to 10
COc1ccc(C[C@@H](N)COc2nc(-c3ccncc3)nc3sc4c(c23)CCCC4)cc1 [compound 169, (R)-1-(4-Methoxy-benzyl)-2-(2-pyridin-4-yl-5,6,7,8-tetrahydro-benzo[4,5]thieno[2,3-d]pyrimidin-4-yloxy)-ethylamine]	10 to 40
N[C@@H](COc1nc(-c2ccncc2)nc2sc3c(c12)CCCC3)Cc1cccs1 [compound 170, (R)-2-(2-Pyridin-4-yl-5,6,7,8-tetrahydro-benzo[4,5]thieno[2,3-d]pyrimidin-4-yloxy)-1-thiophen-2-ylmethyl-ethylamine]	10 to 40
N[C@H](COc1nc(-c2ccncc2)nc2sc3c(c12)CCCC3)Cc1ccc(Br)cc1 [compound 171, (S)-1-(4-Bromo-benzyl)-2-(2-pyridin-4-yl-5,6,7,8-tetrahydro-benzo[4,5]thieno[2,3-d]pyrimidin-4-yloxy)-ethylamine]	1 to 10
N[C@@H](COc1nc(-c2ccncc2)nc2sc3c(c12)CCCC3)Cc1ccc2ccccc2c1 [compound 172, (R)-1-Naphthalen-2-ylmethyl-2-(2-pyridin-4-yl-5,6,7,8-tetrahydro-benzo[4,5]thieno[2,3-d]pyrimidin-4-yloxy)-ethylamine]	10 to 40

Now from value to compound:

IC50 [µM]	SMILES
1 to 10	c1cc(-c2nc(O[C@H]3CCNC3)c3c4c(sc3n2)CCCC4)ccn1 [compound 140, 2-Pyridin-4-yl-4-((S)-pyrrolidin-3-yloxy)-5,6,7,8-tetrahydro-benzo[4,5]thieno[2,3-d]pyrimidine]
1 to 10	c1cc(-c2nc(OC3CCCNC3)c3c4c(sc3n2)CCCC4)ccn1 (stereo not drawn) [compound 141, 4-(Piperidin-3-yloxy)-2-pyridin-4-yl-5,6,7,8-tetrahydro-benzo[4,5]thieno[2,3-d]pyrimidine]
0.1 to 1	N[C@H](COc1nc(-c2ccncc2)nc2sc3c(c12)CCCC3)Cc1ccccc1 [compound 143, (S)-2-Phenyl-1-(2-pyridin-4-yl-5,6,7,8-tetrahydro-benzo[4,5]thieno[2,3-d]pyrimidin-4-yloxymethyl)-ethylamine]
0.1 to 1	C[C@H](N)COc1nc(-c2ccncc2)nc2sc3c(c12)CCCC3 [compound 144, (S)-1-Methyl-2-(2-pyridin-4-yl-5,6,7,8-tetrahydro-benzo[4,5]thieno[2,3-d]pyrimidin-4-yloxy)-ethylamine]
1 to 10	C[C@@H](N)COc1nc(-c2ccncc2)nc2sc3c(c12)CCCC3 [compound 145, (R)-1-Methyl-2-(2-pyridin-4-yl-5,6,7,8-tetrahydro-benzo[4,5]thieno[2,3-d]pyrimidin-4-yloxy)-ethylamine]
1 to 10	CC(C)C[C@@H](N)COc1nc(-c2ccncc2)nc2sc3c(c12)CCCC3 [compound 146, (R)-3-Methyl-1-(2-pyridin-4-yl-5,6,7,8-tetrahydro-benzo[4,5]thieno[2,3-d]pyrimidin-4-yloxymethyl)-butylamine]
1 to 10	CC[C@@H](N)COc1nc(-c2ccncc2)nc2sc3c(c12)CCCC3 [compound 149, (R)-1-(2-Pyridin-4-yl-5,6,7,8-tetrahydro-benzo[4,5]thieno[2,3-d]pyrimidin-4-yloxymethyl)-propylamine]
1 to 10	CC[C@H](N)COc1nc(-c2ccncc2)nc2sc3c(c12)CCCC3 [compound 150, (S)-1-(2-Pyridin-4-yl-5,6,7,8-tetrahydro-benzo[4,5]thieno[2,3-d]pyrimidin-4-yloxymethyl)-propylamine]
1 to 10	CC(C)[C@H](N)COc1nc(-c2ccncc2)nc2sc3c(c12)CCCC3 [compound 151, (S)-2-Methyl-1-(2-pyridin-4-yl-5,6,7,8-tetrahydro-benzo[4,5]thieno[2,3-d]pyrimidin-4-yloxymethyl)-propylamine]
1 to 10	c1cc(-c2nc(OC3CNC3)c3c4c(sc3n2)CCCC4)ccn1 [compound 152, 4-(Azetidin-3-yloxy)-2-pyridin-4-yl-5,6,7,8-tetrahydro-benzo[4,5]thieno[2,3-d]pyrimidine]
1 to 10	c1cc(-c2nc(OC[C@H]3CCCN3)c3c4c(sc3n2)CCCC4)ccn1 [compound 153, 2-Pyridin-4-yl-4-((R)-1-pyrrolidin-2-ylmethoxy)-5,6,7,8-tetrahydro-benzo[4,5]thieno[2,3-d]pyrimidine]
1 to 10	c1cc(-c2nc(OC[C@@H]3CCCN3)c3c4c(sc3n2)CCCC4)ccn1 [compound 154, 2-Pyridin-4-yl-4-((S)-1-pyrrolidin-2-ylmethoxy)-5,6,7,8-tetrahydro-benzo[4,5]thieno[2,3-d]pyrimidine]
1 to 10	N[C@H](COc1nc(-c2ccncc2)nc2sc3c(c12)CCCC3)c1ccccc1 [compound 155, (S)-1-Phenyl-2-(2-pyridin-4-yl-5,6,7,8-tetrahydro-benzo[4,5]thieno[2,3-d]pyrimidin-4-yloxy)-ethylamine]
1 to 10	N[C@H](COc1nc(-c2ccncc2)nc2sc3c(c12)CCCC3)C1CCCCC1 [compound 156, (S)-1-cyclohexyl-2-(2-pyridin-4-yl-5,6,7,8-tetrahydro-benzo[4,5]thieno[2,3-d]pyrimidin-4-yloxy)-ethylamine]
1 to 10	N[C@H](COc1nc(-c2ccncc2)nc2sc3c(c12)CCCC3)CC1CCCCC1 [compound 157, (S)-2-Cyclohexyl-1-(2-pyridin-4-yl-5,6,7,8-tetrahydro-benzo[4,5]thieno[2,3-d]pyrimidin-4-yloxymethyl)-ethylamine]
